Experimental data published in patent US20230293430A1, “FORMULATIONS INCLUDING 5-[3-(3-HYDROXYPHENOXY)AZETIDIN-1-YL]-5-METHYL-2,2-DIPHENYLHEXANAMIDE” (Mylan Pharma UK Limited, priority 2020, published 2023).

Legend:
[1] = Aerosolization performance (fine particle mass / fine particle fraction, Next Generation Impactor); assay type: physicochemical; details: 7% w/w blend strength with 60 μm coarse lactose LH200
Experimental: The expression “respirable fraction” refers to an index of the percentage of active particles which would reach the lungs in a patient. The respirable fraction is evaluated using a suitable in vitro apparatus such as Andersen Cascade Impactor (ACI), Multi Stage Liquid Impinger (MSLI) or Next Generation Impactor (NGI), according to procedures reported in common Pharmacopoeias, in particular in the European Pharmacopeia (Eur. Ph.) 7.3, 7th Edition, which is incorporated herein by reference in its entirety.
In this example, a dry powder blend formulation of carboxamide hydrochloride and lactose monohydrate was obtained and utilized to provide the MGR002 and MGR003 products. To achieve a FPM of 128 μg of MGR002, it has been determined that a 7% w/w carboxamide hydrochloride dry powder blend was required. The formulation included coarse lactose only (LH200, D50 of 60 μm), with a 5% w/w API overage to account for losses during the blending process. […]
Aerosolization performance information was obtained for the same batches of MGR002 and MGR003 as were used in obtaining emitted data. FIG. 3 illustrates the aerosolization performance as measured by fine particle mass (FPM) obtained from 6 devices from each MGR002 and MGR003 product. […]

[2] = Equivalence of TIR and FPM between products (ratio of geometric means, NGI); assay type: physicochemical
Source text: Aerosolization performance information was obtained for the same batches of MGR002 and MGR003 as were used in obtaining emitted data. FIG. 3 illustrates the aerosolization performance as measured by fine particle mass (FPM) obtained from 6 devices from each MGR002 and MGR003 product. FIG. 4 and Table 37 below present the results and equivalence criteria, respectively for carboxamide hydrochloride of formula II. The results in Table 37 are listed in terms of total impactor recovery (TIR) and fine particle mass (FPM) for MGR001, MGR002 and MGR003, carboxamide compound, salmeterol and fluticasone propionate.
The mean particle mass (FPM) and mean total impactor recovery (TIR) from a next generation impactor (NGI) for each batch were equivalent, based on the fact that the upper/lower 90% confidence interval of the ratio of the geometric mean, and fell between 0.90 and 1.11. […] The fluticasone propionate and salmeterol xinafoate components of the MGR003 drug product also met the same performance targets as the MGR001 250/50 drug product.

Row | fine particle mass (FPM) achieved [1] [µg] | FPM: ratio of geometric means (MGR002 divided by MGR003) ([2]; fine particle mass) | TIR: ratio of geometric means (MGR002 divided by MGR003) ([2]; total impactor recovery) | FPM: ratio of geometric means (MGR001 divided by MGR003) ([2]; fine particle mass) | TIR: ratio of geometric means (MGR001 divided by MGR003) ([2]; total impactor recovery) | SMILES
1 | 138 | 0.95 | 0.97 | – | – | CC(C)(CCC(C(N)=O)(c1ccccc1)c1ccccc1)N1CC(Oc2cccc(O)c2)C1.Cl [Carboxamide Hydrochloride, 5-[3-(3-Hydroxyphenoxy)azetidin-1-yl]-5-methyl-2,2-diphenylhexanamide hydrochloride]
2 | – | – | – | 0.99 | 0.96 | CCC(=O)O[C@]1(C(=O)SCF)[C@H](C)C[C@H]2[C@@H]3C[C@H](F)C4=CC(=O)C=C[C@]4(C)[C@@]3(F)[C@@H](O)C[C@@]21C [Fluticasone propionate, fluticasone propionate]
3 | – | – | – | 1.01 | 0.97 | OCc1cc(C(O)CNCCCCCCOCCCCc2ccccc2)ccc1O (stereo not shown) [Salmeterol, salmeterol xinafoate]
